Tests used:
[1] = molar heat capacity at constant pressure; settings: 101.33 kPa, Liquid, Large sample (1 g) DSC
[2] = 101.33 kPa, Liquid; for speed of sound: Pulse-echo method; for mass density: Pycnometric method

CCCCCCCCBr [1-bromooctane]
[1]
Settings	molar heat capacity at constant pressure [J/K/mol]
298.15 K	272.15
303.15 K	274.7
308.15 K	277.25
313.15 K	279.8
318.15 K	282.35
323.15 K	284.92
328.15 K	287.47
333.15 K	290.02
338.15 K	292.56
343.15 K	295.11
348.15 K	297.66
353.15 K	300.23
358.15 K	302.78
363.15 K	305.33
368.15 K	307.88
373.15 K	310.43
378.15 K	313
383.15 K	315.55
388.15 K	318.1
393.15 K	320.64
398.15 K	323.19
403.15 K	325.76
408.15 K	328.31
413.15 K	330.86
418.15 K	333.41
423.15 K	335.96

CCCCCCCBr [1-bromoheptane]
[1]
Settings	molar heat capacity at constant pressure [J/K/mol]
298.15 K	249.39
303.15 K	251.24
308.15 K	253.07
313.15 K	254.91
318.15 K	256.75
323.15 K	258.58
328.15 K	260.43
333.15 K	262.27
338.15 K	264.1
343.15 K	265.94
348.15 K	267.77
353.15 K	269.61
358.15 K	271.46
363.15 K	273.29
368.15 K	275.13
373.15 K	276.98
378.15 K	278.8
383.15 K	280.65
388.15 K	282.47
393.15 K	284.32
398.15 K	286.16
403.15 K	287.99
408.15 K	289.83
413.15 K	291.68
418.15 K	293.51
423.15 K	295.35

CCCCCCCCCCCCCCBr [1-tetradecyl bromide]
Settings	mass density, [2] [kg/m3]	molar heat capacity at constant pressure, [1] [J/K/mol]	speed of sound, [2] [m/s]
298.15 K	1012.2	450.84	1277.2
303.15 K	1008.1	454.08	1260.6
308.15 K	1003.9	457.3	1244.1
313.15 K	999.8	460.54	1227.9
318.15 K	995.7	463.79	1211.9
323.15 K	991.6	467.03	1196
328.15 K	987.4	470.27	1180.4
333.15 K	983.3	473.52	1164.9
338.15 K	979.1	476.73	1149.6
343.15 K	974.9	479.98	1134.5
348.15 K	970.8	483.22	1119.5
353.15 K	966.6	486.47	1104.6
358.15 K	962.4	489.71	1089.9
363.15 K	958.2	492.93	1075.3
368.15 K	954	496.17	1060.9
373.15 K	949.8	499.42	1046.5
378.15 K	945.6	502.66	1032.3
383.15 K	941.3	505.9	1018.2
388.15 K	937.1	509.15	1004.2
393.15 K	932.9	512.37	990.2
398.15 K	928.6	515.61	976.4
403.15 K	924.4	518.85	962.6
408.15 K	920.1	522.1	948.9
413.15 K	915.9	525.34	935.3
418.15 K	911.6	528.56	921.7
423.15 K	907.4	531.8	908.1

CCCCCCCCCCCCBr [1-bromododecane]
[1]
Settings	molar heat capacity at constant pressure [J/K/mol]
298.15 K	399.29
303.15 K	402.38
308.15 K	405.47
313.15 K	408.56
318.15 K	411.65
323.15 K	414.75
328.15 K	417.84
333.15 K	420.93
338.15 K	424.02
343.15 K	427.11
348.15 K	430.2
353.15 K	433.26
358.15 K	436.35
363.15 K	439.44
368.15 K	442.53
373.15 K	445.62
378.15 K	448.72
383.15 K	451.81
388.15 K	454.9
393.15 K	457.99
398.15 K	461.08
403.15 K	464.14
408.15 K	467.23
413.15 K	470.32
418.15 K	473.41
423.15 K	476.5

CCCCCCBr [1-bromohexane]
[1]
Settings	molar heat capacity at constant pressure [J/K/mol]
298.15 K	219.66
303.15 K	221.28
308.15 K	222.9
313.15 K	224.51
318.15 K	226.13
323.15 K	227.77
328.15 K	229.38
333.15 K	231
338.15 K	232.62
343.15 K	234.24
348.15 K	235.87
353.15 K	237.49
358.15 K	239.11
363.15 K	240.72
368.15 K	242.34
373.15 K	243.96
378.15 K	245.59
383.15 K	247.21
388.15 K	248.83
393.15 K	250.45
398.15 K	252.06
403.15 K	253.68
408.15 K	255.32
413.15 K	256.93
418.15 K	258.55
423.15 K	260.17

CCCCCCCCCBr [1-bromononane]
[1]
Settings	molar heat capacity at constant pressure [J/K/mol]
298.15 K	308.3
303.15 K	310.56
308.15 K	312.82
313.15 K	315.1
318.15 K	317.36
323.15 K	319.61
328.15 K	321.87
333.15 K	324.15
338.15 K	326.41
343.15 K	328.67
348.15 K	330.92
353.15 K	333.2
358.15 K	335.46
363.15 K	337.72
368.15 K	339.98
373.15 K	342.26
378.15 K	344.51
383.15 K	346.77
388.15 K	349.03
393.15 K	351.31
398.15 K	353.57
403.15 K	355.82
408.15 K	358.08
413.15 K	360.36
418.15 K	362.62
423.15 K	364.88

CCCCCCCCCCCBr [1-bromoundecane]
[1]
Settings	molar heat capacity at constant pressure [J/K/mol]
298.15 K	373.22
303.15 K	375.72
308.15 K	378.21
313.15 K	380.7
318.15 K	383.19
323.15 K	385.69
328.15 K	388.18
333.15 K	390.67
338.15 K	393.17
343.15 K	395.66
348.15 K	398.15
353.15 K	400.62
358.15 K	403.12
363.15 K	405.61
368.15 K	408.1
373.15 K	410.6
378.15 K	413.09
383.15 K	415.58
388.15 K	418.08
393.15 K	420.57
398.15 K	423.06
403.15 K	425.56
408.15 K	428.02
413.15 K	430.52
418.15 K	433.01
423.15 K	435.5

CCCCCCCCCCBr [1-bromodecane]
[1]
Settings	molar heat capacity at constant pressure [J/K/mol]
298.15 K	334.38
303.15 K	336.85
308.15 K	339.35
313.15 K	341.85
318.15 K	344.35
323.15 K	346.85
328.15 K	349.35
333.15 K	351.85
338.15 K	354.33
343.15 K	356.83
348.15 K	359.33
353.15 K	361.82
358.15 K	364.32
363.15 K	366.82
368.15 K	369.32
373.15 K	371.8
378.15 K	374.3
383.15 K	376.8
388.15 K	379.3
393.15 K	381.8
398.15 K	384.3
403.15 K	386.8
408.15 K	389.27
413.15 K	391.77
418.15 K	394.27
423.15 K	396.77
